Experimental data reported in PMC8267566, “Human GPR17 missense variants identified in metabolic disease patients have distinct downstream signaling profiles” (The Journal of Biological Chemistry, 2021).

How the values were obtained:
Experiment in all cases: Tango β-arrestin recruitment assay
Format in all cases: cell-based
hGPR17L-G354V-Tango = target: T1, hGPR17L-G354V-Tango (Homo sapiens, UniProt Q13304, G354V)
T1 construct: Tango fusion module; host or cells: HTLA (HEK293T-derived)
Experimental: (§1) HTLA cells were seeded at 10,000 cells/well into white, opaque, poly-D-lysine-coated 96-well plates and transfected with hGPR17L-WT-Tango or hGPR17L-variant-Tango plasmids the following day using lipofectamine 3000 according to the manufacturer's protocol. The next day, cells were incubated at 37 °C and 5% CO2 in serum-free growth media for a 4 h serum starvation. MDL29,951 was then diluted in assay buffer (HBSS, 20 mM HEPES, pH 7.2), added to the cells, and incubated for 16 h at 37 °C and 5% CO2. Drug treatment was decanted and 80 μl/well of Promega Bright-Glo reagent (diluted 20× in assay buffer) (E2610; Promega Corporation) was added and incubated at room temperature for 15 min. Luminescence (1 s per well integration time) was read on a Molecular Devices SpectraMax iD5 plate reader.

hGPR17L-A131T-Tango = target: T2, hGPR17L-A131T-Tango (Homo sapiens, UniProt Q13304, A131T)
T2 construct: Tango fusion module; host or cells: HTLA (HEK293T-derived)
T2 sequence (Q13304 whole entry A131T, the tested form may be a part): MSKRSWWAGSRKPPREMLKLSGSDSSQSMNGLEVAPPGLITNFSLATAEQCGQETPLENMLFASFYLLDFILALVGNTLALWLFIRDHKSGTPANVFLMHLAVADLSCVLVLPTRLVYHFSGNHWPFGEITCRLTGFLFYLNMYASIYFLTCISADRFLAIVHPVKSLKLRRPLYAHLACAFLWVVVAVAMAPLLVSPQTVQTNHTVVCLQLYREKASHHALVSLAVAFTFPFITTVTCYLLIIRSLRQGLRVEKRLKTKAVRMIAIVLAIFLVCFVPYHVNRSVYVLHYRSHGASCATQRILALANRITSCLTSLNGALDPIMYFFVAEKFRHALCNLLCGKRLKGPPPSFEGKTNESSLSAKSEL
Experimental: as §1

hGPR17L-R301H-Tango = target: T3, hGPR17L-R301H-Tango (Homo sapiens, UniProt Q13304, R301H)
T3 construct: Tango fusion module; host or cells: HTLA (HEK293T-derived)
T3 sequence (Q13304 whole entry R301H, the tested form may be a part): as the sequence (Q13304 whole entry A131T, the tested form may be a part) above, with T131A, R301H counted along it
Experimental: as §1

hGPR17L-WT-Tango = target: T4, hGPR17L-WT-Tango (Homo sapiens, UniProt Q13304)
T4 construct: Tango fusion module; host or cells: HTLA (HEK293T-derived)
T4 sequence (Q13304 whole entry, the tested form may be a part): as the sequence (Q13304 whole entry A131T, the tested form may be a part) above, with T131A counted along it
Experimental: as §1

hGPR17L-G136S-Tango = target: T5, hGPR17L-G136S-Tango (Homo sapiens, UniProt Q13304, G136S); settings: HTLA cells, 30 μM MDL29,951
T5 construct: Tango fusion module; host or cells: HTLA (HEK293T-derived)
T5 sequence (Q13304 whole entry G136S, the tested form may be a part): as the sequence (Q13304 whole entry A131T, the tested form may be a part) above, with T131A, G136S counted along it
Experimental: as §1

hGPR17L-R248Q-Tango = target: T6, hGPR17L-R248Q-Tango (Homo sapiens, UniProt Q13304, R248Q)
T6 construct: Tango fusion module; host or cells: HTLA (HEK293T-derived)
T6 sequence (Q13304 whole entry R248Q, the tested form may be a part): as the sequence (Q13304 whole entry A131T, the tested form may be a part) above, with T131A, R248Q counted along it
Experimental: as §1

hGPR17L-D105N-Tango = target: T7, hGPR17L-D105N-Tango (Homo sapiens, UniProt Q13304, D105N)
T7 construct: Tango fusion module; host or cells: HTLA (HEK293T-derived)
T7 sequence (Q13304 whole entry D105N, the tested form may be a part): as the sequence (Q13304 whole entry A131T, the tested form may be a part) above, with D105N, T131A counted along it
Experimental: as §1

hGPR17L-F43L-Tango = target: T8, hGPR17L-F43L-Tango (Homo sapiens, UniProt Q13304, F43L)
T8 construct: Tango fusion module; host or cells: HTLA (HEK293T-derived)
T8 sequence (Q13304 whole entry F43L, the tested form may be a part): as the sequence (Q13304 whole entry A131T, the tested form may be a part) above, with F43L, T131A counted along it
Experimental: as §1

hGPR17L-V103M-Tango = target: T9, hGPR17L-V103M-Tango (Homo sapiens, UniProt Q13304, V103M)
T9 construct: Tango fusion module; host or cells: HTLA (HEK293T-derived)
T9 sequence (Q13304 whole entry V103M, the tested form may be a part): as the sequence (Q13304 whole entry A131T, the tested form may be a part) above, with V103M, T131A counted along it
Experimental: as §1

hGPR17L-V96M-Tango = target: T10, hGPR17L-V96M-Tango (Homo sapiens, UniProt Q13304, V96M); settings: HTLA cells, MDL29,951 0.5 nM to 30 μM
T10 construct: Tango fusion module; host or cells: HTLA (HEK293T-derived)
T10 sequence (Q13304 whole entry V96M, the tested form may be a part): as the sequence (Q13304 whole entry A131T, the tested form may be a part) above, with V96M, T131A counted along it
Experimental: as §1

[1] = read-out: β-arrestin recruitment EC50, HTLA cells

T1 sequence (Q13304 whole entry G354V, the tested form may be a part): as the sequence (Q13304 whole entry A131T, the tested form may be a part) above, with T131A, G354V counted along it

`O=C(O)CCc1c(C(=O)O)[nH]c2cc(Cl)cc(Cl)c12` [MDL29,951] was tested, and the “β-arrestin recruitment pEC50 ± SEM” value (hGPR17L-G354V-Tango; HTLA cells) was 6.96 ± 0.04, the EC50 (hGPR17L-G354V-Tango; [1]) was 110 nM and the “β-arrestin recruitment Efficacy (% of WT span)” value (hGPR17L-A131T-Tango; HTLA cells) was 97 ± 5.2 % of WT span. For the same molecule, the “β-arrestin recruitment pEC50 ± SEM” value (hGPR17L-A131T-Tango; HTLA cells) was 6.55 ± 0.06, the EC50 (hGPR17L-A131T-Tango; [1]) was 280 nM and the “β-arrestin recruitment Efficacy (% of WT span)” value (hGPR17L-R301H-Tango; HTLA cells) was 69 ± 9.0 % of WT span. For the same molecule, the “β-arrestin recruitment pEC50 ± SEM” value (hGPR17L-R301H-Tango; HTLA cells) was 6.55 ± 0.04, the EC50 (hGPR17L-R301H-Tango; [1]) was 280 nM and the “maximum β-arrestin recruitment response” value (hGPR17L-WT-Tango; HTLA cells) was 1.78 ± 0.09 fold over baseline. The “β-arrestin recruitment Efficacy (% of WT span)” value (hGPR17L-WT-Tango; HTLA cells) was 100 % of WT span, the “β-arrestin recruitment pEC50 ± SEM” value (hGPR17L-WT-Tango; HTLA cells) was 7.02 ± 0.02 and the EC50 (hGPR17L-WT-Tango; [1]) was 96 nM. The “agonist-stimulated β-arrestin recruitment” value (hGPR17L-G136S-Tango) was “only a modest response”, the “β-arrestin recruitment Efficacy (% of WT span)” value (hGPR17L-R248Q-Tango; HTLA cells) was 73 ± 16 % of WT span and the “β-arrestin recruitment pEC50 ± SEM” value (hGPR17L-R248Q-Tango; HTLA cells) was 7.55 ± 0.16. For the same molecule, the EC50 (hGPR17L-R248Q-Tango; [1]) was 28 nM, the “β-arrestin recruitment Efficacy (% of WT span)” value (hGPR17L-D105N-Tango; HTLA cells) was 100 ± 5.0 % of WT span and the “β-arrestin recruitment pEC50 ± SEM” value (hGPR17L-D105N-Tango; HTLA cells) was 6.53 ± 0.03. For the same molecule, the EC50 (hGPR17L-D105N-Tango; [1]) was 290 nM, the “β-arrestin recruitment Efficacy (% of WT span)” value (hGPR17L-F43L-Tango; HTLA cells) was 61 ± 13 % of WT span and the “β-arrestin recruitment pEC50 ± SEM” value (hGPR17L-F43L-Tango; HTLA cells) was 7.08 ± 0.03. For the same molecule, the EC50 (hGPR17L-F43L-Tango; [1]) was 83 nM, the “β-arrestin recruitment Efficacy (% of WT span)” value (hGPR17L-V103M-Tango; HTLA cells) was 84 ± 13 % of WT span and the “β-arrestin recruitment pEC50 ± SEM” value (hGPR17L-V103M-Tango; HTLA cells) was 6.69 ± 0.05. For the same molecule, the EC50 (hGPR17L-V103M-Tango; [1]) was 210 nM and the “agonist-stimulated β-arrestin recruitment” value (hGPR17L-V96M-Tango) was “no apparent agonist-stimulated β-arrestin recruitment”.
